Assay results as given in patent US7317033B2, “Substituted thiophenes: compositions, processes of making, and uses in disease treatment and diagnosis” (Sanofi-Aventis Deutschland GmbH, priority 2002, dated 2008).
Where a name gives a salt, the structure may show the parent alone.

Key:
[1] = molecular target: T1, hNHE3 (Homo sapiens, UniProt P48764); experiment: recovery of intracellular pH (pHi) after acidification, BCECF fluorescence, hNHE3; type: cell-based; settings: pH recovery recorded for three minutes
T1 construct: host or cells: cells, not specified
T1 sequence (P48764 26-834): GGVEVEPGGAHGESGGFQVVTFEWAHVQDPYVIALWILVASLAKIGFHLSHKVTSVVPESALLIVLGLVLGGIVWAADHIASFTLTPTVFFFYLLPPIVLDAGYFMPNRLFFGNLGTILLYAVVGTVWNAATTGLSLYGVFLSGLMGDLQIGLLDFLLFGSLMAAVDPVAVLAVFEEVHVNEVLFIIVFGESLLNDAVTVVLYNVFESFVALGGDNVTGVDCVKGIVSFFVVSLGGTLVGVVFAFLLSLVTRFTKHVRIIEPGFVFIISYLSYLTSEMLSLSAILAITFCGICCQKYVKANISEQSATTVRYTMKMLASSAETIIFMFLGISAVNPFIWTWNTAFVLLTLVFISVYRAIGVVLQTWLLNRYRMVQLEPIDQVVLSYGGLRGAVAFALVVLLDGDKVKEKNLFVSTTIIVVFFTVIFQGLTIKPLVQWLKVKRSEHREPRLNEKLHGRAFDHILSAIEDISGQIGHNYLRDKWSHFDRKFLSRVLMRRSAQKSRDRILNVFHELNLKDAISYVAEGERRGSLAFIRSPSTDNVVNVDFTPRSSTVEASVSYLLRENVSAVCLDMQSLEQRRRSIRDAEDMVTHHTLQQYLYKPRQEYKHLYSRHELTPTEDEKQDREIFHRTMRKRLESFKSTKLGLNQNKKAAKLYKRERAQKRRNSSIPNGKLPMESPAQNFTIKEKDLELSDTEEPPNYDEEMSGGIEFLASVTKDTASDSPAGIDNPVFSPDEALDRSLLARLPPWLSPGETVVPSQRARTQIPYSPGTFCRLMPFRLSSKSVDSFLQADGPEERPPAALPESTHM
Description: In this test, the recovery of the intracellular pH (pHi) after an acidification, which starts when the NHE is capable of functioning, even under bicarbonate-free conditions, was determined. For this purpose, the pHi was determined using the pH-sensitive fluorescent dye BCECF (Calbiochem, the precursor BCECF-AM is employed). The cells were initially loaded with BCECF. The BCECF fluorescence was determined in a “ratio fluorescence spectrometer” (Photon Technology International, South Brunswick, N.J., USA) with excitation wavelengths of 505 and 440 nm and an emission wavelength of 535 nm, and was converted into the pHi using calibration plots. The cells were incubated in NH4Cl buffer (pH 7.4) (NH4Cl buffer: 115 mM NaCl, 20 mM NH4Cl, 5 mM KCl, 1 mM CaCl2, 1 mM MgSO4, 20 mM Hepes, 5 mM glucose, 1 mg/ml BSA; a pH of 7.4 is established with 1 M NaOH) even during the BCECF loading. The intracellular acidification was induced by addition of 975 μl of an NH4Cl-free buffer (see below) to 25 μl aliquots of the cells incubated in NH4Cl buffer. The subsequent rate of pH recovery was recorded in the case of NHE1 for two minutes, in the case of NHE2 for five minutes and in the case of NHE3 for three minutes. To calculate the inhibitory power of the tested substances, the cells were initially investigated in buffers in which complete or absolutely no pH recovery took place. For complete pH recovery (100%), the cells were incubated in Na^+-containing buffer (133.8 mM NaCl, 4.7 mM KCl, 1.25 mM CaCl2, 1.25 mM MgCl2, 0.97 mM Na2HPO4, 0.23 mM NaH2PO4, 5 mM Hepes, 5 mM glucose, a pH of 7.0 is established with 1 M NaOH). To determine the 0% value, the cells were incubated in an Na^+-free buffer (133.8 mM choline chloride, 4.7 mM KCl, 1.25 mM CaCl2, 1.25 mM MgCl2, 0.97 mM K2HPO4, 0.23 mM KH2PO4, 5 mM Hepes, 5 mM glucose, a pH of 7.0 is established with 1 M KOH). The substances to be tested were made up in the Na^+-containing buffer. Recovery of the intracellular pH at each tested concentration of a substance was expressed as a percentage of the maximum recovery. Using the Sigma-Plot program, the IC50 value of the substance in question was calculated for the individual NHE subtypes using the percentages for pH recovery.

[2] = molecular target: T2, rNHE3 (Rattus norvegicus, UniProt P26433); experiment: recovery of intracellular pH (pHi) after acidification, BCECF fluorescence, rNHE3; type: cell-based; settings: pH recovery recorded for three minutes
T2 construct: host or cells: cells, not specified
T2 sequence (P26433 29-831): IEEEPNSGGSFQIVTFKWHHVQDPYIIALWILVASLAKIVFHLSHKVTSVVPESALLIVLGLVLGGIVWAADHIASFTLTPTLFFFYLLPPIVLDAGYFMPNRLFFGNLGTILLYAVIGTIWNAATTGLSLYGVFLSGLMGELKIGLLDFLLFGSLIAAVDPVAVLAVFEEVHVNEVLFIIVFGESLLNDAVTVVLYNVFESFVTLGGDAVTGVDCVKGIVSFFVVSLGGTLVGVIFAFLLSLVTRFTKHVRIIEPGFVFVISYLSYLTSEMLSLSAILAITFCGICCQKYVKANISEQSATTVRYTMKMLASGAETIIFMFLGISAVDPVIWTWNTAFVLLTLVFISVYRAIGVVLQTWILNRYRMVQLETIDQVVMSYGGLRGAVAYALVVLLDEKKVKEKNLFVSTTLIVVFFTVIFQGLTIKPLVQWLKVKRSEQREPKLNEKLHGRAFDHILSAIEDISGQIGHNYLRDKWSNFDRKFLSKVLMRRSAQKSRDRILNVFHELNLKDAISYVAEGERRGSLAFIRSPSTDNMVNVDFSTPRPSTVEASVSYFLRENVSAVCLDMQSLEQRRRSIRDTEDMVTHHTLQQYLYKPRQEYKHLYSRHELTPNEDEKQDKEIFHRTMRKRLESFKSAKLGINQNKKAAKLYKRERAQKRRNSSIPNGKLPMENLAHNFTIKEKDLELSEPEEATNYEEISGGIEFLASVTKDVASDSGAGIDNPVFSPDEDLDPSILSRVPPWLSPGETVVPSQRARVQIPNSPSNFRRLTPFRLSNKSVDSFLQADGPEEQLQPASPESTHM
Description: In this test, the recovery of the intracellular pH (pHi) after an acidification, which starts when the NHE is capable of functioning, even under bicarbonate-free conditions, was determined. For this purpose, the pHi was determined using the pH-sensitive fluorescent dye BCECF (Calbiochem, the precursor BCECF-AM is employed). The cells were initially loaded with BCECF. The BCECF fluorescence was determined in a “ratio fluorescence spectrometer” (Photon Technology International, South Brunswick, N.J., USA) with excitation wavelengths of 505 and 440 nm and an emission wavelength of 535 nm, and was converted into the pHi using calibration plots. The cells were incubated in NH4Cl buffer (pH 7.4) (NH4Cl buffer: 115 mM NaCl, 20 mM NH4Cl, 5 mM KCl, 1 mM CaCl2, 1 mM MgSO4, 20 mM Hepes, 5 mM glucose, 1 mg/ml BSA; a pH of 7.4 is established with 1 M NaOH) even during the BCECF loading. […] The subsequent rate of pH recovery was recorded in the case of NHE1 for two minutes, in the case of NHE2 for five minutes and in the case of NHE3 for three minutes. […] Recovery of the intracellular pH at each tested concentration of a substance was expressed as a percentage of the maximum recovery. Using the Sigma-Plot program, the IC50 value of the substance in question was calculated for the individual NHE subtypes using the percentages for pH recovery.

| SMILES | IC50 [1] | other results |
| --- | --- | --- |
| Cc1csc(Cl)c1Nc1nc2cc(F)ccc2[nH]1 (as salt: hydrochloride) [Example 2, 2-Chloro-3N-(5-fluoro-2-benzimidazolyl)-4-methyl-3-thienylamine hydrochloride] | – | melting point: 200 to 202 °C |
| Cc1csc(Cl)c1NC1=N[C@@H]2CCCC[C@H]2N1 (as salt: hydrochloride) [Example 16, trans-R,R-2-chloro-3N-(3a,4,5,6,7,7a-hexahydro-1H-2-benzimidazolyl)-4-methyl-3-thienylamine hydrochloride] | – | melting point: 260 to 262 °C |
| Cc1csc(Cl)c1Nc1nc2cc(F)ccc2[nH]1 [Example 2, 2-Chloro-3N-(5-fluoro-2-benzimidazolyl)-4-methyl-3-thienylamine hydrochloride] | 620 nM | – |
| Cc1csc(Cl)c1Nc1nc2ccccc2[nH]1 [Example 12, 2-Chloro-3N-(2-benzimidazolyl)-4-methyl-3-thienylamine hydrochloride] | – | IC50 [2]: 120 nM |
| Cc1csc(Cl)c1NC1=N[C@@H]2CCCC[C@H]2N1 [Example 16, trans-R,R-2-chloro-3N-(3a,4,5,6,7,7a-hexahydro-1H-2-benzimidazolyl)-4-methyl-3-thienylamine hydrochloride] | – | IC50 [2]: 270 nM |
| Cc1csc(Br)c1Nc1nc2ccccc2[nH]1 [Example 18, 2-Bromo-3N-(2-benzimidazolyl)-4-methyl-3-thienylamine hydrochloride] | 120 nM | – |
| Cc1csc(Br)c1NC1=N[C@@H]2CCCC[C@H]2N1 [Example 19, trans-R,R-2-Bromo-3N-(3a,4,5,6,7,7a-hexahydro-1H-2-benz-imidazolyl)-4-methyl-3-thienylamine hydrochloride] | 560 nM | – |
| Cc1csc(Cl)c1Nc1nc2c(O)cccc2[nH]1 [Example 38, 2-Chloro-3N-(4-hydroxy-2-benzimidazolylamino)-4-methylthiophene hydrochloride] | 840 nM | – |
| Cc1csc(Cl)c1N(C)c1nc2ccccc2[nH]1 [Example 44, (1H-Benzimidazol-2-yl)-(2-chloro-4-methylthiophen-3-yl)methylamine] | 1590 nM | – |
| Clc1csc(Br)c1Nc1nc2ccccc2[nH]1 [Example 53, 2-Bromo-4-chloro-3N-(2-benzimidazolylamino)thiophene hydrochloride] | 140 nM | – |
| Fc1ccc2[nH]c(Nc3c(Cl)csc3Cl)nc2c1 [Example 54, (2,4-Dichloro-thiophen-3-yl)-(5-fluoro-1H-benzoimidazol-2-yl)-amine-hydrochloride] | 220 nM | – |
| Fc1cc2nc(Nc3c(Cl)csc3Cl)[nH]c2cc1F [Example 56, (2,4-Dichloro-thiophen-3-yl)-(5,6-difluoro-1H-benzoimidazol-2-yl)-amine-hydrochloride] | 220 nM | – |
| Clc1cscc1NC1=N[C@H]2CCCC[C@@H]2N1 [Example 60, trans-(3aS,7aS)-4-Chloro-3N-(3a,4,5,6,7,7a-hexahydro-1H-2-benzimidazolyl)-3-thienylamine Hydrochloride] | 190 nM | – |
| Clc1csc(Cl)c1NC1=N[C@@H]2CCCC[C@H]2N1 [Example 63, trans-R,R-2,4-Dichloro-3N-(3a,4,5,6,7,7a-hexahydro-1H-2-benzimidazolyl)-3-thienylamine Hydrochloride] | 540 nM | – |
